# In PubChem BioAssay (NCI):
#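 Growth conditions: 96-well plates. Treatment: test compound, 48 hours, 5 concentrations. Analysis: linear interpolation between bracketing concentrations; unreached endpoints set to highest concentration. GI50 marks 50% less growth. TGI marks complete inhibition of growth.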
# Tests used:
# Experiment in all cases: NCI-60 cell line screen, 48 h
# CAKI-1 renal = test system: CAKI-1 renal
# COLO 205 colon = test system: COLO 205 colon
# HOP-62 NSCLC = test system: HOP-62 NSCLC
# IGROV1 ovarian = test system: IGROV1 ovarian
# M14 melanoma = test system: M14 melanoma
# NCI-H522 lung = test system: NCI-H522 lung
# SF-268 CNS = test system: SF-268 CNS
# SK-OV-3 ovarian = test system: SK-OV-3 ovarian
Structure (SMILES),GI50 (CAKI-1 renal),TGI (CAKI-1 renal),GI50 (COLO 205 colon),TGI (COLO 205 colon),GI50 (HOP-62 NSCLC),TGI (HOP-62 NSCLC),GI50 (IGROV1 ovarian),TGI (IGROV1 ovarian),GI50 (M14 melanoma),TGI (M14 melanoma),GI50 (NCI-H522 lung),TGI (NCI-H522 lung),GI50 (SF-268 CNS),TGI (SF-268 CNS),GI50 (SK-OV-3 ovarian),TGI (SK-OV-3 ovarian)
Cc1ccc(N2C(=O)C(Cl)=C(Nc3cccc(O)c3)C2=O)cc1Cl,17 µM,34.6 µM,26.4 µM,73 µM,17.7 µM,36.3 µM,31.5 µM,> 100 µM,17.6 µM,32.3 µM,31.8 µM,> 100 µM,18.3 µM,37.2 µM,21 µM,44.2 µM
CCCCc1cc(O)ccc1O,33 µM,> 100 µM,74.6 µM,> 100 µM,53.7 µM,> 100 µM,32.3 µM,> 100 µM,–,–,2.28 µM,6.97 µM,15.5 µM,> 100 µM,64.5 µM,> 100 µM
CC/C=C\C[C@H](O)C/C=C1/C(=O)C=C[C@@H]1C/C=C\CCCC(N)=O,1.62 µM,3.92 µM,2.11 µM,4.72 µM,2.99 µM,7.77 µM,3.09 µM,12.2 µM,2.31 µM,6.89 µM,1.3 µM,2.67 µM,2.96 µM,11.7 µM,3.96 µM,12.8 µM
C=C1C(=O)O[C@H]2[C@H]1CC/C(COC(=O)c1ccc(C(=O)O)s1)=C\CC[C@@]1(C)O[C@@H]21,1.71 µM,3.11 µM,2.01 µM,3.92 µM,6.96 µM,20.2 µM,2.16 µM,5.82 µM,1.52 µM,3.43 µM,1.93 µM,3.87 µM,2.08 µM,4.69 µM,12.3 µM,25.1 µM
Cc1ccc(-c2cc3nc(-c4ccccc4)nc(C(Cl)Cl)n3n2)cc1,0.668 µM,1.33 µM,1.06 µM,2.34 µM,0.666 µM,2.11 µM,1.43 µM,> 50 µM,> 50 µM,> 50 µM,> 50 µM,> 50 µM,1.11 µM,3.53 µM,1.52 µM,18.6 µM
O=C1Cc2c(-c3ccccc3)cc(-c3cccc(Cl)c3)nc2-c2ccccc2N1,–,5.06 µM,–,> 58.3 µM,–,4.12 µM,–,6.45 µM,–,> 63.9 µM,–,5.1 µM,–,14 µM,–,9.49 µM
COC1C(=O)CCC2(CO2)C1(O)C1(C)OC1CCC(C)C (centres undefined),–,> 100 µM,–,> 100 µM,–,> 100 µM,–,> 100 µM,–,> 100 µM,–,> 100 µM,–,> 100 µM,–,> 100 µM
O=C1OCC2=Nc3cccc4cccc(c34)N12,–,> 100 µM,–,> 100 µM,–,> 100 µM,–,> 100 µM,–,> 100 µM,–,> 100 µM,–,> 100 µM,–,> 100 µM
OCC1OC(N2C=C(c3nc4ccccc4s3)C3C=CC=CC32)C(O)C1O (centres undefined),9.32 µM,22 µM,14.1 µM,49.6 µM,16 µM,> 50 µM,14.8 µM,> 50 µM,9.6 µM,22.4 µM,> 50 µM,> 50 µM,8.11 µM,> 50 µM,28.2 µM,> 50 µM
CCOC(=O)/C(C1=CC(=O)C(=O)c2ccccc21)=C(/C)NCc1ccccc1,1.61 µM,3.58 µM,2.01 µM,4.54 µM,1.56 µM,3.44 µM,1.05 µM,–,1.71 µM,3.17 µM,1.22 µM,–,1.64 µM,3.43 µM,2.17 µM,4.88 µM
OCCCNCc1ccccn1,–,> 100 µM,–,> 100 µM,–,> 100 µM,–,> 100 µM,–,> 100 µM,–,> 100 µM,–,> 100 µM,–,> 100 µM
CCN(CC)CC(C)Nc1ccc(C)c2sc3ccccc3c(=O)c12 (centres undefined),3.04 µM,14.1 µM,1.68 µM,3.77 µM,2.63 µM,8.67 µM,3.9 µM,17.1 µM,1.62 µM,3.2 µM,10.9 µM,28.7 µM,6.24 µM,18.4 µM,2.85 µM,12.3 µM
Nc1ncnc2c1ncn2C1OC(C(=O)O)C(O)C1O (centres undefined),–,> 100 µM,–,> 100 µM,–,> 100 µM,–,> 100 µM,–,> 100 µM,–,> 100 µM,–,> 100 µM,–,> 100 µM
C=C1C(O)C2C(=C(CC(C)C)C13CC3)C(=O)C(C)(C)C2OC (centres undefined),–,–,> 100 µM,> 100 µM,> 100 µM,> 100 µM,–,–,> 100 µM,> 100 µM,> 100 µM,> 100 µM,> 100 µM,> 100 µM,> 100 µM,> 100 µM
NC(N)=N/N=C/c1c(-c2cc(Cl)sc2Cl)nc2n1CCS2,12.8 µM,23.2 µM,–,–,8.87 µM,15.8 µM,16.4 µM,> 50 µM,6.93 µM,14.3 µM,20.4 µM,> 50 µM,11.3 µM,23.5 µM,–,–
OC1CCC(C2C3CCCCC3C3CCCCC3C2C2CCC(O)CC2)CC1 (centres undefined),–,13 µM,–,–,–,47.4 µM,–,12.8 µM,–,> 100 µM,–,6.37 µM,–,14.5 µM,–,31 µM
CCc1ccc(C2=C(O)C(=O)C(c3ccc(CC)cc3)=C(O)C2=O)cc1,1.92 µM,5.27 µM,1.69 µM,5.36 µM,1.5 µM,3.42 µM,1.59 µM,3.54 µM,1.74 µM,4.54 µM,1.51 µM,4.61 µM,2.14 µM,6.44 µM,2.05 µM,5.66 µM
C=C(CNCCO)[C@@H]1CC[C@]2(CO)CC[C@]3(C)[C@H](CC[C@@H]4[C@@]5(C)CCC(NCCc6ccc(O)cc6)C(C)(C)[C@@H]5CC[C@]43C)[C@@H]12 (some centres undefined),1.62 µM,3.33 µM,0.194 µM,0.427 µM,1.59 µM,2.99 µM,1.64 µM,3.55 µM,0.187 µM,0.398 µM,1.64 µM,3.13 µM,1.56 µM,3.22 µM,1.7 µM,3.23 µM
COC(=O)c1ccc2c(c1)c1c(C)c3cnccc3c(C)c1n2C,0.0354 µM,0.61 µM,0.0387 µM,0.277 µM,0.0538 µM,0.995 µM,0.0323 µM,0.569 µM,0.0622 µM,0.241 µM,0.0667 µM,0.528 µM,0.0618 µM,3.06 µM,0.107 µM,0.527 µM

Structure (SMILES),GI50 (CAKI-1 renal),TGI (CAKI-1 renal),GI50 (COLO 205 colon),TGI (COLO 205 colon),GI50 (HOP-62 NSCLC),TGI (HOP-62 NSCLC),GI50 (IGROV1 ovarian),TGI (IGROV1 ovarian),GI50 (M14 melanoma),TGI (M14 melanoma),GI50 (NCI-H522 lung),TGI (NCI-H522 lung),GI50 (SF-268 CNS),TGI (SF-268 CNS),GI50 (SK-OV-3 ovarian),TGI (SK-OV-3 ovarian)
O=C1C=C(c2cc(Br)c(O)c(Br)c2)/C(=C/c2cc(Br)c(O)c(Br)c2)O1,34.3 µM,> 75 µM,29.8 µM,> 75 µM,–,–,17.8 µM,> 75 µM,17.8 µM,> 75 µM,30.4 µM,> 75 µM,30.5 µM,> 75 µM,–,–
CN(C)CCNc1cccc2sc3ccc(O)cc3c(=O)c12,2.22 µM,13.3 µM,3.92 µM,15.3 µM,2.29 µM,6.58 µM,3.13 µM,12.5 µM,1.85 µM,4.33 µM,1.77 µM,5.66 µM,3.18 µM,14.6 µM,3.36 µM,14.4 µM
CN(C)CCNC(=O)c1cccc(CO)c1[N+](=O)[O-],–,> 100 µM,–,> 100 µM,–,> 100 µM,–,> 100 µM,–,> 100 µM,–,> 100 µM,–,> 100 µM,–,> 100 µM
CCC(=O)N1C/C(=C/c2ccc(OC)cc2)C(=O)/C(=C/c2ccc(OC)cc2)C1,2.74 µM,9.73 µM,1.99 µM,3.65 µM,2.79 µM,6.45 µM,2.21 µM,4.93 µM,1.92 µM,3.96 µM,1.85 µM,3.86 µM,2.31 µM,5.71 µM,4.61 µM,27.9 µM
COc1cccc2c(=O)c3c(sc12)c(NCCCN)nc1ccccc13,1.48 µM,2.82 µM,–,–,–,–,0.858 µM,2.16 µM,–,–,1.81 µM,3.65 µM,1.48 µM,3.32 µM,–,–
ClCCn1cnc2c(SCc3ccccc3)ncnc21,8.86 µM,> 100 µM,1.79 µM,> 100 µM,1.44 µM,> 100 µM,0.497 µM,10.7 µM,7.04 µM,> 100 µM,–,–,1.49 µM,> 100 µM,8.3 µM,> 100 µM
OC1CCC(Oc2cccc3cnc(Nc4ccc5nc[nH]c5c4)nc23)CC1 (centres undefined),0.497 µM,21.5 µM,0.21 µM,0.886 µM,0.331 µM,14.9 µM,0.287 µM,16.6 µM,0.333 µM,3.11 µM,1.13 µM,5.3 µM,0.413 µM,12.8 µM,3.35 µM,47.8 µM
N#C/C(=C(\O)C(=O)O)c1ccc(-c2cccc3ccccc23)cc1,–,> 100 µM,–,> 100 µM,–,> 100 µM,–,> 100 µM,–,> 100 µM,–,> 100 µM,–,> 100 µM,–,> 100 µM
CC1=CC[C@@H]2C(C)(C)[C@@H](O)CC[C@@]2(C)[C@@H]1COc1ccc2ccc(=O)oc2c1,4.11 µM,20.9 µM,5.35 µM,23.6 µM,6.84 µM,26.1 µM,6.03 µM,22 µM,7.2 µM,21.3 µM,3.81 µM,22.1 µM,6.5 µM,26.3 µM,15.5 µM,32.3 µM
CCOC(=O)/C=C/c1ccc(C(=O)OCC)[nH]1,6.36 µM,> 100 µM,2.82 µM,8.38 µM,7.14 µM,> 100 µM,4.84 µM,> 100 µM,2.82 µM,> 100 µM,2.69 µM,8.89 µM,6.65 µM,> 100 µM,27.8 µM,> 100 µM
O=C(/C=C/c1ccc([N+](=O)[O-])o1)NNC(=O)c1cc2ccccc2cc1O,1.04 µM,–,1.92 µM,6.54 µM,3.67 µM,> 100 µM,3.07 µM,> 100 µM,0.738 µM,2.29 µM,0.565 µM,2.03 µM,1.29 µM,> 100 µM,4.23 µM,> 100 µM
Cc1cc(O)cc(C)c1/C=C/c1cncc(C(=O)N(C)C)c1,> 25 µM,> 25 µM,> 25 µM,> 25 µM,> 25 µM,> 25 µM,> 25 µM,> 25 µM,> 25 µM,> 25 µM,> 25 µM,> 25 µM,> 25 µM,> 25 µM,> 25 µM,> 25 µM
CN(C)CN1C(=O)S/C(=C2\C(=O)N(CN(C)C)c3ccccc32)C1=O,–,97.9 µM,–,> 100 µM,–,> 100 µM,–,> 100 µM,–,68.3 µM,–,> 100 µM,–,> 100 µM,–,> 100 µM
O=C1/C(=C\c2cccs2)Oc2ccccc21,–,> 100 µM,–,> 100 µM,–,> 100 µM,–,> 100 µM,–,> 100 µM,–,> 100 µM,–,> 100 µM,–,> 100 µM
COc1ccc([N+](=O)[O-])c2c(NCC(O)CO)ccnc12 (centres undefined),–,> 100 µM,–,53.6 µM,–,> 100 µM,–,97.5 µM,–,> 100 µM,–,30.2 µM,–,> 100 µM,–,> 100 µM
O=C(O)c1nnsc1COCc1ccccc1,–,> 100 µM,–,> 100 µM,–,> 100 µM,–,> 100 µM,–,> 100 µM,–,> 100 µM,–,> 100 µM,–,> 100 µM
O=c1c(OC/C(=N/O)c2ccccc2)c(-c2ccccc2)oc2ccccc12,9.52 µM,40.8 µM,14.8 µM,42.9 µM,20.3 µM,> 50 µM,–,–,19.4 µM,> 50 µM,17 µM,> 50 µM,11.7 µM,25 µM,20.3 µM,> 50 µM
O=[N+]([O-])/C=C\c1ccc2c(c1)OCO2,1.69 µM,7.36 µM,3.71 µM,13.4 µM,13.3 µM,27 µM,1.98 µM,4.67 µM,2.08 µM,4.77 µM,–,–,10.5 µM,22.4 µM,12.1 µM,24.4 µM
